Test results taken from US12545640B2, “Substituted 6,7-dihydro-5H-benzo[7]annulene compounds, processes for their preparation and therapeutic uses thereof” (SANOFI, priority 2019, dated 2026).

What follows are compounds tested against T1, ERα (Homo sapiens, UniProt P03372) (assay: Estrogen receptor degradation activity: breast cancer cell ERα in cell western assay (MCF7 cells)). Settings: 4 hours, final concentrations ranging from 0.3-0.0000018 μM, relative to fulvestrant 0.1 μM positive control.
T1 construct: host or cells: MCF7 cells
T1 sequence (P03372 1-595): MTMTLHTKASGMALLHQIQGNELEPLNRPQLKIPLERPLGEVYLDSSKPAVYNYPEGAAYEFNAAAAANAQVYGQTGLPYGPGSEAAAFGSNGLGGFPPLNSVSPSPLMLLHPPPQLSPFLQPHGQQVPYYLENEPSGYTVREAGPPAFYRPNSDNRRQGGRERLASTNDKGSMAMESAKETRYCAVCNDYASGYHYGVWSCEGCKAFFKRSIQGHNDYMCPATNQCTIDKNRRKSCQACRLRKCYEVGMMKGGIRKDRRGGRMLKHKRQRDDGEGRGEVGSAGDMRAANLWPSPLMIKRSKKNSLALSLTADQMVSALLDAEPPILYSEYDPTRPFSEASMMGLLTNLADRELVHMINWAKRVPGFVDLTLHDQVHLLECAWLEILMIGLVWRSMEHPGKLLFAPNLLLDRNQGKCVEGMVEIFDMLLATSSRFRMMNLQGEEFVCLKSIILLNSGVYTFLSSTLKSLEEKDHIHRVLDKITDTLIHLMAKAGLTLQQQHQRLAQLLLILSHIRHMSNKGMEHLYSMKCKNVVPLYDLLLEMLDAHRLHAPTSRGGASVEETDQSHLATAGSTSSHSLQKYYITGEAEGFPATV
Type: cell-based
Summary of the method: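 MCF7 cells in phenol red-free MEM alpha with 5% charcoal-stripped FBS, treated 4 h with 9-point 1:5 dilutions (top final 3 or 0.3 μM); fulvestrant 0.1 μM as positive control. Formalin-fixed, anti-ER antibody with Alexa 488 secondary; ERα fluorescence normalised to Syto-64 DNA signal.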

First: OC(c1ccc2c(c1)CCCC(c1cccc(F)c1Cl)=C2c1ccc(O[C@H]2CCN(CCCF)C2)cc1)C(F)(F)F (stereo partly drawn) [Example 65, 1-(8-(2-chloro-3-fluorophenyl)-9-(4-(((S)-1-(3-fluoropropyl)pyrrolidin-3-yl)oxy)phenyl)-6,7-dihydro-5H-benzo[7]annulen-3-yl)-2,2,2-trifluoroethan-1-ol]
Second: O=[N+]([O-])c1cccc(-c2ccc3c(c2)CCCC(c2cccc(F)c2Cl)=C3c2ccc(O[C@H]3CCN(CCCF)C3)cc2)c1 [Example 96, (S)-3-(4-(8-(2-chloro-3-fluorophenyl)-3-(3-nitrophenyl)-6,7-dihydro-5H-benzo[7]annulen-9-yl)phenoxy)-1-(3-fluoropropyl)pyrrolidine]
The “% Degradation At 0.3 μM” value of the first is higher: 90% for the first, 76% for the second.

Compared with `NC(=O)c1ccc(-c2ccc3c(c2)CCCC(c2ccc(Cl)cc2Cl)=C3c2ccc(O[C@H]3CCN(CCCF)C3)cc2)cc1` [Example 81, (S)-4-(8-(2,4-dichlorophenyl)-9-(4-((1-(3-fluoropropyl)pyrrolidin-3-yl)oxy)phenyl)-6,7-dihydro-5H-benzo[7]annulen-3-yl)benzamide], `O=C(c1ccc2c(c1)CCCC(c1ccc(Cl)cc1Cl)=C2c1ccc(O[C@H]2CCN(CCCF)C2)cc1)N1CC(O)C1` [Example 74, (S)-(8-(2,4-dichlorophenyl)-9-(4-((1-(3-fluoropropyl)pyrrolidin-3-yl)oxy)phenyl)-6,7-dihydro-5H-benzo[7]annulen-3-yl)(3-hydroxyazetidin-1-yl)methanone] is lower in “% Degradation At 0.3 μM” value: 67% for the first, 59% for the second.

Compared with `CCOC(=O)C(=O)Nc1ccc2c(c1)CCCC(c1ccc(Cl)cc1Cl)=C2c1ccc(O[C@H]2CCN(CCCF)C2)cc1` [Example 76, ethyl (S)-2-((8-(2,4-dichlorophenyl)-9-(4-((1-(3-fluoropropyl)pyrrolidin-3-yl)oxy)phenyl)-6,7-dihydro-5H-benzo[7]annulen-3-yl)amino)-2-oxoacetate], `CC(C)(C)OC(=O)Nc1ccc2c(c1)CCCC(c1ccccc1)=C2c1ccc(O[C@H]2CCN(CCCF)C2)cc1` [Example 71, tert-butyl (S)-(9-(4-((1-(3-fluoropropyl)pyrrolidin-3-yl)oxy)phenyl)-8-phenyl-6,7-dihydro-5H-benzo[7]annulen-3-yl)carbamate] is higher in “% Degradation At 0.3 μM” value: 75% for the first, 91% for the second.

Same assay, conditions: 4 hours, final concentrations ranging from 3-0.000018 μM, relative to fulvestrant 0.1 μM positive control

Going from `O=C(Nc1ccc2c(c1)CCCC(c1ccc(Cl)cc1Cl)=C2c1ccc(O[C@H]2CCN(CCCF)C2)cc1)C(F)(F)F` [Example 47, (S)—N-(8-(2,4-dichlorophenyl)-9-(4-((1-(3-fluoropropyl)pyrrolidin-3-yl)oxy)phenyl)-6,7-dihydro-5H-benzo[7]annulen-3-yl)-2,2,2-trifluoroacetamide] to `O=S(=O)(Nc1ccc2c(c1)CCCC(c1ccc(Cl)cc1Cl)=C2c1ccc(O[C@H]2CCN(CCCF)C2)cc1)C(F)(F)F` [Example 35, (S)—N-(8-(2,4-dichlorophenyl)-9-(4-((1-(3-fluoropropyl)pyrrolidin-3-yl)oxy)phenyl)-6,7-dihydro-5H-benzo[7]annulen-3-yl)-1,1,1-trifluoromethanesulfonamide], the “% Degradation At 3 μM” value falls from 78% to 52%.

Compared with `O=C(O)c1cccc(-c2ccc3c(c2)CCCC(c2ccc(Cl)cc2Cl)=C3c2ccc(O[C@H]3CCN(CCCF)C3)cc2)c1` [Example 55, (S)-3-(8-(2,4-dichlorophenyl)-9-(4-((1-(3-fluoropropyl)pyrrolidin-3-yl)oxy)phenyl)-6,7-dihydro-5H-benzo[7]annulen-3-yl)benzoic acid], `O=c1[nH]nc(-c2ccc3c(c2)CCCC(c2ccc(Cl)cc2Cl)=C3c2ccc(O[C@H]3CCN(CCCF)C3)cc2)o1` [Example 31, (S)-5-(8-(2,4-dichlorophenyl)-9-(4-((1-(3-fluoropropyl)pyrrolidin-3-yl)oxy)phenyl)-6,7-dihydro-5H-benzo[7]annulen-3-yl)-1,3,4-oxadiazol-2(3H)-one] is higher in “% Degradation At 3 μM” value: 84% for the first, 95% for the second.

First: O=c1[nH]c(-c2ccc3c(c2)CCCC(c2ccc(Cl)cc2Cl)=C3c2ccc(O[C@H]3CCN(CCCF)C3)cc2)no1 [Example 27, (S)-3-(8-(2,4-dichlorophenyl)-9-(4-((1-(3-fluoropropyl)pyrrolidin-3-yl)oxy)phenyl)-6,7-dihydro-5H-benzo[7]annulen-3-yl)-1,2,4-oxadiazol-5(4H)-one]
Second: CON(C)C(=O)c1ccc2c(c1)CCCC(c1ccc(Cl)cc1Cl)=C2c1ccc(O[C@H]2CCN(CCCF)C2)cc1 [Example 44, (S)-8-(2,4-dichlorophenyl)-9-(4-((1-(3-fluoropropyl)pyrrolidin-3-yl)oxy)phenyl)-N-methoxy-N-methyl-6,7-dihydro-5H-benzo[7]annulene-3-carboxamide]
The “% Degradation At 3 μM” value of the first is higher: 71% for the first, 50% for the second.

In the case of `O=C1OCCN1c1ccc(C2=C(c3ccc(O[C@H]4CCN(CCCF)C4)cc3)c3ccc(N4CCOC4=O)cc3CCC2)c(Cl)c1` [Example 41, (S)-3-(8-(2-chloro-4-(2-oxooxazolidin-3-yl)phenyl)-9-(4-((1-(3-fluoropropyl)pyrrolidin-3-yl)oxy)phenyl)-6,7-dihydro-5H-benzo[7]annulen-3-yl)oxazolidin-2-one], the “% Degradation At 3 μM” value is reported as 74%.
